According to patent US8426342B2, “Method for weed control in lawn” (priority 2008, dated 2013):

Legend:
Poa annua = assay: Effectivity testing against weed plants ex. 5.1, sprayable formulation on dormant Bermuda grass turf, Abbott %; format: in vivo
Text: (§1) Each plot was divided by different pre-treatments 1 week before application of the trial treatments: • A) Pre-treatment with glyphosate-isopropylammonium allowing to evaluate in this section the pre-emergence effect against weeds. • B) No pre-treatment, present winter annual weeds are received a post-emergence application.
(§2) 2005, applied on dormant turf in winter
(§3) Effectivity was rated in percent (%) herbicidal effect compared with untreated control according to the method of Abbott according to the formula [(X−Y)/X]100 where X is the absolute level/scoring of the control plants, Y is the level/scoring of the treated plants. 100% efficacy means full control; 0% efficacy means no control of the weed; all ratings above 80% are usually acceptable.

Dagitaria sanguinales = assay: Effectivity testing against weed plants ex. 5.1, Abbott %; format: in vivo, Digitaria sanguinales
Text: as §1, §2, §3

SMILES: Cc1ccc2c(c1)[C@H](Nc1nc(N)nc([C@@H](C)F)n1)[C@@H](C)C2 (stereo in doubt) [(A21)/(A22), indaziflam]
- Herbicidal effect (%) on Poa annua, Post-emergence application without pre-treatment (Poa annua; 25 g a.i./ha, 123 DAT): 27%
- Herbicidal effect (%) on Poa annua, Pre-emergence application after pre-treatment (Poa annua; 25 g a.i./ha, 123 DAT): 96%
- Herbicidal effect (%) on Poa annua, Post-emergence application without pre-treatment (Poa annua; 25 g a.i./ha, 157 DAT): 77%
- Herbicidal effect (%) on Poa annua, Pre-emergence application after pre-treatment (Poa annua; 25 g a.i./ha, 157 DAT): 92%
- Herbicidal effect (%) on Poa annua, Post-emergence application without pre-treatment (Poa annua; 25 g a.i./ha, 187 DAT): 98%
- Herbicidal effect (%) on Poa annua, Pre-emergence application after pre-treatment (Poa annua; 25 g a.i./ha, 187 DAT): 96%
- Herbicidal effect (%) on Poa annua, Post-emergence application without pre-treatment (Poa annua; 50 g a.i./ha, 123 DAT): 77%
- Herbicidal effect (%) on Poa annua, Pre-emergence application after pre-treatment (Poa annua; 50 g a.i./ha, 123 DAT): 98%
- Herbicidal effect (%) on Poa annua, Post-emergence application without pre-treatment (Poa annua; 50 g a.i./ha, 157 DAT): 95%
- Herbicidal effect (%) on Poa annua, Pre-emergence application after pre-treatment (Poa annua; 50 g a.i./ha, 157 DAT): 100%
- Herbicidal effect (%) on Poa annua, Post-emergence application without pre-treatment (Poa annua; 50 g a.i./ha, 187 DAT): 100%
- Herbicidal effect (%) on Poa annua, Pre-emergence application after pre-treatment (Poa annua; 50 g a.i./ha, 187 DAT): 100%
- Herbicidal effect (%) on Poa annua, Post-emergence application without pre-treatment (Poa annua; 75 g a.i./ha, 123 DAT): 98%
- Herbicidal effect (%) on Poa annua, Pre-emergence application after pre-treatment (Poa annua; 75 g a.i./ha, 123 DAT): 100%
- Herbicidal effect (%) on Poa annua, Post-emergence application without pre-treatment (Poa annua; 75 g a.i./ha, 157 DAT): 100%
- Herbicidal effect (%) on Poa annua, Pre-emergence application after pre-treatment (Poa annua; 75 g a.i./ha, 157 DAT): 100%
- Herbicidal effect (%) on Poa annua, Post-emergence application without pre-treatment (Poa annua; 75 g a.i./ha, 187 DAT): 100%
- Herbicidal effect (%) on Poa annua, Pre-emergence application after pre-treatment (Poa annua; 75 g a.i./ha, 187 DAT): 100%
- Herbicidal effect (%) on Dagitaria sanguinales, Pre-emergence application after pre-treatment (Dagitaria sanguinales; 25 g a.i./ha, 187 DAT): 100%
- Herbicidal effect (%) on Dagitaria sanguinales, Pre-emergence application after pre-treatment (Dagitaria sanguinales; 25 g a.i./ha, 207 DAT): 100%
- Herbicidal effect (%) on Dagitaria sanguinales, Pre-emergence application after pre-treatment (Dagitaria sanguinales; 25 g a.i./ha, 234 DAT): 97%
- Herbicidal effect (%) on Dagitaria sanguinales, Pre-emergence application after pre-treatment (Dagitaria sanguinales; 25 g a.i./ha, 259 DAT): 99%
- Herbicidal effect (%) on Dagitaria sanguinales, Pre-emergence application after pre-treatment (Dagitaria sanguinales; 50 g a.i./ha, 187 DAT): 100%
- Herbicidal effect (%) on Dagitaria sanguinales, Pre-emergence application after pre-treatment (Dagitaria sanguinales; 50 g a.i./ha, 207 DAT): 100%
- Herbicidal effect (%) on Dagitaria sanguinales, Pre-emergence application after pre-treatment (Dagitaria sanguinales; 50 g a.i./ha, 234 DAT): 100%
- Herbicidal effect (%) on Dagitaria sanguinales, Pre-emergence application after pre-treatment (Dagitaria sanguinales; 50 g a.i./ha, 259 DAT): 100%
- Herbicidal effect (%) on Dagitaria sanguinales, Pre-emergence application after pre-treatment (Dagitaria sanguinales; 75 g a.i./ha, 187 DAT): 100%
- Herbicidal effect (%) on Dagitaria sanguinales, Pre-emergence application after pre-treatment (Dagitaria sanguinales; 75 g a.i./ha, 207 DAT): 100%
- Herbicidal effect (%) on Dagitaria sanguinales, Pre-emergence application after pre-treatment (Dagitaria sanguinales; 75 g a.i./ha, 234 DAT): 100%
- Herbicidal effect (%) on Dagitaria sanguinales, Pre-emergence application after pre-treatment (Dagitaria sanguinales; 75 g a.i./ha, 259 DAT): 100%
